Reference: PMC11017246, “Discovery of GLPG2737, a Potent Type 2 Corrector of CFTR for the Treatment of Cystic Fibrosis in Combination with a Potentiator and a Type 1 Co-corrector” (Journal of Medicinal Chemistry, 2024)
Converted amounts (≈) assume the structure as drawn. Like-named read-outs stand apart in the source and are kept apart here.

What was measured:
[1] = Liver microsomal stability, dog; format: in vitro ADME; conditions: matrix not given, read-out: Clintr,unbound dog
Description: The microsomal stability assay was performed by incubation of test compound at 1 μM, 0.2% DMSO in phosphate buffer with microsomes (0.5 mg/mL) from mouse, rat, dog, or human (Xeno-Tech, Kansas City, KS, USA), and cofactors with final concentrations of 0.6 U/mL glucose-6- phosphate dehydrogenase, 3.3 mM MgCl2, 3.3 mM glucose-6-phosphate, and 1.3 mM nicotinamide adenine dinucleotide phosphate (NADP)+. Before addition of the microsomes (time zero) and after 30 min of incubation at 37 °C with shaking, the reaction was stopped, and proteins were precipitated with an excess of acetonitrile containing an internal standard. The samples were mixed, centrifuged, and filtered, and the supernatant was analyzed by liquid chromatography–mass spectrometry/mass spectrometry (LC–MS/MS). […] In vitro unbound intrinsic clearance (CLint,u) was calculated from the half-life using the following equations: [drawing 1] […]
Equilibrium dialysis is a technique used to measure microsomal binding. […] Each compound was analyzed in duplicate for 4 h at 37 °C. At the end of incubation, both chambers were sampled and analyzed by LC-MS/MS. The unbound microsomal fraction (fu, mic) was calculated as the concentration in buffer divided by the total concentration in the microsomal side. […]

CYP2C9 = target: T1, CYP2C9 (Homo sapiens, UniProt P11712); test: CYP reversible inhibition in HLM, CYP2C9; format: in vitro ADME; conditions: probe diclofenac; read-out: CYP inhibition in HLM IC50, CYP2C9
T1 construct: tissue BD Gentest; host or cells: human liver microsomes
Description: (§1) Test compounds were diluted in methanol and then added to mixture containing 50 mM potassium phosphate buffer, pH 7.4, human liver microsomes (BD Gentest) and probe substrate. After prewarming for 5 min at 37 °C, the reaction was started by adding cofactor mix (7.65 mg/mL glucose-6-phosphate, 1.7 mg/mL NADP, 6 U/mL of glucose-6-phosphate dehydrogenase), resulting in seven final concentrations of test compounds in the range 0.14–100 μM (2% methanol). Isoform specific conditions regarding probe substrate and microsomal protein concentrations are available in Table 2. Final concentrations of cofactor mix components were as follows: 1.56 mg/mL glucose-6-phosphate, 0.34 mg/mL NADP, and 1.2 U/mL glucose-6-phosphate dehydrogenase. After incubation at 37 °C, the reaction was terminated with acetonitrile:methanol (2:1) solution with internal standard. Samples were centrifuged, and the supernatant fractions were analyzed by LC-MS/MS. The instrument responses (test compounds and internal standard peak areas) were referenced to those for solvent controls (assumed as 100%) in order to determine the percentage reduction in probe metabolism. Percent of control activity vs concentration plots were generated and fitted using GraphPad Prism software to generate IC50.

Caco-2 cells = test: Intestinal permeability on Caco-2 cells; format: in vitro ADME, human; conditions: A to B, n = 1
Description: Caco-2 cells were obtained from the European Collection of Cell Cultures (ECACC) and used after a 21-day cell culture in 24-well Transwell plates. Test compounds and the references (vinblastine and propranolol) were prepared in protein-free Hanks’ balanced salt solution containing 25 mM HEPES (pH 7.4) at a concentration of 10 μM and added to either the apical or basolateral chambers of a Transwell plate assembly. Before the experiment, the integrity of the monolayer was checked by measuring the transepithelial resistance. Lucifer yellow (LY) was added to the donor buffer in all wells to assess the integrity of the cell layers by monitoring LY permeation. As LY cannot freely permeate lipophilic barriers, a high degree of LY transport indicates poor integrity of the cell layer. […] Concentrations of the compound in the samples were measured by LC–MS/MS. Apparent permeability (Papp) coefficients were calculated from the relationship: Papp = dQ/dt × 1/A × C0, where Papp is the apparent permeability coefficient (cm s^–1), dQ/dt is the amount of drug permeated per unit of time, A is the effective surface area of the artificial membrane exposed to the medium, and C0 is the initial drug concentration in the donor compartment. The efflux ratios, as an indication of active efflux from the apical cell surface, were calculated using the ratio of Papp(B → A)/Papp(A → B).

CYP2D6 = target: T2, CYP2D6 (Homo sapiens, UniProt P10635); test: CYP reversible inhibition in HLM, CYP2D6; format: in vitro ADME; conditions: probe dextromethorphan
T2 construct: tissue BD Gentest; host or cells: human liver microsomes
Description: as §1

Thermodynamic solubility = format: physicochemical
Description: Dry matter of compound was dissolved at 1 mg/mL in buffers at different pH (Fasted simulated gastric fluid and pH 7.4) in glass vials. After 24 h of stirring at room temperature, a sample is taken, centrifuged for 10 min at 10,000 rpm, and filtered. The samples were diluted in duplicate in DMSO (F100 and F10). Then, a final dilution (F100) in 80/20 water/acetonitrile containing the internal standard was used for the LCMS-MS analysis.
A standard curve was made ranging from a 200,000–75 ng/mL stock in DMSO, freshly prepared from dry matter. The standard curve and quality controls were diluted in an F100 in 80/20 water/acetonitrile (with internal standard) and analyzed on LC/MS-MS. The peak areas of the standard curve are plotted in a graph, and a linear or polynomial of the second order equation is used to calculate the unknown concentrations of the test compound.

[2] = Hepatocyte stability, mouse; format: in vitro ADME; conditions: mouse hepatocytes
Description: The hepatocyte stability assay was performed by incubation of test compound at 1 μM, 0.03% DMSO in modified Krebs–Henseleit buffer with suspension of pooled cryopreserved hepatocytes (BioIVT, Hicksville, NY, USA) from mouse, rat, dog, or human (BioIVT, Hicksville, NY, USA) at 0.5 million viable hepatocytes/mL. Before adding the hepatocytes (time zero) and after 10, 20, 45, 90, 120, and 180 min of incubation (n = 2) at 37 °C while gently shaking, the reaction was stopped and proteins were precipitated with an excess of acetonitrile containing an internal standard. The samples were mixed, centrifuged, and filtered, and the supernatant was analyzed by liquid chromatography–mass spectrometry/mass spectrometry (LC–MS/MS). The instrument responses (peak areas/IS peak areas) were referenced to the zero-time point samples (considered as 100%) in order to determine the percentage of compound remaining.

T2 sequence (P10635 whole entry): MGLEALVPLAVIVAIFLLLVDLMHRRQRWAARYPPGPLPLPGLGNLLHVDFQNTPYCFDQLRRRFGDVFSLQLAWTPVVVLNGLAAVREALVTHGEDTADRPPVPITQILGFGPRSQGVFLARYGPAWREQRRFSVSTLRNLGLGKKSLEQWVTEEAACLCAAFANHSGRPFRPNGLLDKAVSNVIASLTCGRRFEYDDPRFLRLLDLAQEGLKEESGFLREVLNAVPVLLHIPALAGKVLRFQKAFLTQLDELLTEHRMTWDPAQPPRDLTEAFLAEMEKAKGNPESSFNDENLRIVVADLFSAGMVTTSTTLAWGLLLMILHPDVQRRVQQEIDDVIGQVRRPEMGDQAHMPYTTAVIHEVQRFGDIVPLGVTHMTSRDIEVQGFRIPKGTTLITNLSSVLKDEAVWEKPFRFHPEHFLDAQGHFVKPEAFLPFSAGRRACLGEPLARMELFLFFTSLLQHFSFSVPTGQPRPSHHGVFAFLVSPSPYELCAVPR
T1 sequence (P11712 whole entry): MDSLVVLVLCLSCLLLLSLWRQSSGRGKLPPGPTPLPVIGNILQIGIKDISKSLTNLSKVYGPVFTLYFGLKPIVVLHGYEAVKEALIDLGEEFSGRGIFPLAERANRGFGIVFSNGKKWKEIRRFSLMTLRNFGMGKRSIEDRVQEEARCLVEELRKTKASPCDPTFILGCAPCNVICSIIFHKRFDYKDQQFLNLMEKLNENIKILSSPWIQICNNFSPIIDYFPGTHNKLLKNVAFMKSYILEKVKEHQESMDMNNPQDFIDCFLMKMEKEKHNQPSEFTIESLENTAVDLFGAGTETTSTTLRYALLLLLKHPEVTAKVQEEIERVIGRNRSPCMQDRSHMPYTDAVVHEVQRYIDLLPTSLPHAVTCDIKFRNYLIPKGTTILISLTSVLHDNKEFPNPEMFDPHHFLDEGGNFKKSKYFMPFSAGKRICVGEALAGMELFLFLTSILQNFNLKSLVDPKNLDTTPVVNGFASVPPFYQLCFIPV

CLint scaled at 1 μM [1]: < 32 mL/min/kg
IC50 (CYP2C9): 1400 nM
Caco-2 PA2B (Caco-2 cells): 24.5 cm × 10^–6 s^–1
IC50 (CYP2D6): > 100 µM
solubility thermodynamic at 24 h (Thermodynamic solubility; buffer pH 7.4, pH 7.4, read-out: thermodynamic solubility pH 7.4): 9.9 µg/mL (≈ 16.1 µM)
solubility thermodynamic at 24 h (Thermodynamic solubility; fasted simulated gastric fluid, read-out: thermodynamic solubility FASSGF): 10.9 µg/mL (≈ 17.8 µM)
Hepatocyte stability: %LBF mouse [2]: 24 %LBF
Hepatocyte stability: predicted hepCl mouse ([2]; 1 µM): 1.9 L/h/kg
Structure (SMILES): COC1CCN(C2CCN(c3cc(C(=O)NS(=O)(=O)N(C)C)nc4c3c(C3CCC3)nn4-c3ccc(F)cc3)CC2)CC1 [Compound 52, 3-Cyclobutyl-N-(N,N-dimethylsulfamoyl)-1-(4-fluorophenyl)-4-(4-methoxy-[1,4′-bipiperidin]-1′-yl)-1H-pyrazolo[3,4-b]pyridine-6-carboxamide]
